This note sets out measurements from ChEMBL document CHEMBL1201862, “PubChem BioAssay data set” (2004).

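Growth conditions: 96-well plates. Treatment: test compound, 48 hours, 5 concentrations. Analysis: linear interpolation between bracketing concentrations; unreached endpoints set to highest concentration. GI50 marks 50% less growth.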 Active and inactive are the calls of the source. Rule as the data show it: active = GI50 up to about 1.1 µM and inactive = higher.

Among the test systems are TK-10; MDA-N; HOP-62; KM12; SF-539; MDA-MB-231; OVCAR-4; DU-145; SW-620; K562; SR; NCI-H23; A498; HL-60; MOLT-4; SK-MEL-28; OVCAR-3; NCI-H460; M14; T47D.
Assay in all cases: inhibition of tumour cell growth, NCI panel, 48 h

For the compound `O=C1C(Br)=C(c2ccccc2)C(c2ccccc2)=C1c1ccccc1`, the GI50 is 3.42 µM (inactive) in the assay on TK-10; 2.98 µM (inactive) in the assay with MDA-N; 14.2 µM (inactive) with HOP-62; 5.94 µM (inactive) in the assay with KM12; 3.01 µM (inactive) in the assay with SF-539; 1.79 µM (inactive) in the assay on MDA-MB-231. Further, the GI50 is 1.99 µM (inactive) in the assay with OVCAR-4; 13.2 µM (inactive) in the assay on DU-145; 1.77 µM (inactive) in the assay with SW-620; 1.61 µM (inactive) with K562; 0.979 µM (active) in the assay with SR; 3.64 µM (inactive) with NCI-H23. Moreover, the GI50 in the assay on A498 was 16.1 µM (inactive); in the assay on HL-60 it was 0.67 µM (active); in the assay on MOLT-4, 0.601 µM (active); in the assay on SK-MEL-28 it was 2.61 µM (inactive); in the assay on OVCAR-3, 2.61 µM (inactive); in the assay with NCI-H460, 4.83 µM (inactive). For the same compound, the GI50 was 2.15 µM (inactive) with M14 and 2.37 µM (inactive) in the assay with T47D.
Turning to `c1cc2c3ccsc3c3sccc3c2s1`, the GI50 in the assay with TK-10 was > 100 µM (inactive); in the assay with MDA-N, > 100 µM (inactive); with HOP-62 it was 21.4 µM (inactive); with KM12 it was > 100 µM (inactive); in the assay on SF-539 it was 90.8 µM (inactive); in the assay with MDA-MB-231, > 100 µM (inactive). Further, the GI50 in the assay with OVCAR-4 is > 100 µM (inactive); with DU-145, > 100 µM (inactive); with SW-620, > 100 µM (inactive); in the assay on K562, > 100 µM (inactive); in the assay on SR it was 24.7 µM (inactive); with NCI-H23, 47.5 µM (inactive). For the same compound, the GI50 is > 100 µM (inactive) in the assay on A498; 46.9 µM (inactive) in the assay with HL-60; 55.7 µM (inactive) in the assay with MOLT-4; > 100 µM (inactive) with SK-MEL-28; > 100 µM (inactive) in the assay on OVCAR-3; > 100 µM (inactive) in the assay with NCI-H460. Besides, the GI50 in the assay with M14 and in the assay with T47D was > 100 µM (inactive) throughout.
Regarding `O=C(NCCNCCNCCNC(=O)c1cc(-c2ccccc2)nc2ccccc12)c1cc(-c2ccccc2)nc2ccccc12`, the GI50 in the assay on TK-10 is 3.01 µM (inactive); in the assay with MDA-N it was 1.6 µM (inactive); with HOP-62, 2.51 µM (inactive); in the assay with KM12, 2.24 µM (inactive); in the assay on SF-539, 2.08 µM (inactive); in the assay on MDA-MB-231 it was 2.96 µM (inactive). Besides, the GI50 in the assay on OVCAR-4 was 3.43 µM (inactive); in the assay with DU-145 it was 3.24 µM (inactive); in the assay on SW-620 it was 1.83 µM (inactive); in the assay on K562, 1.94 µM (inactive); in the assay on SR, 2.02 µM (inactive); in the assay with NCI-H23, 3.15 µM (inactive). For the same compound, the GI50 was 3.16 µM (inactive) with A498; 1.74 µM (inactive) with HL-60; 1.95 µM (inactive) with MOLT-4; 1.7 µM (inactive) in the assay with SK-MEL-28; 2.64 µM (inactive) with OVCAR-3; 1.79 µM (inactive) with NCI-H460. Further, the GI50 is 1.82 µM (inactive) in the assay on M14 and 2.68 µM (inactive) with T47D.
For the compound `CCOC(=O)c1sc2[n+](c1C)C(=O)/C(=C/c1ccccc1Cl)S2`, the GI50 is 15.3 µM (inactive) in the assay on TK-10; 0.259 µM (active) in the assay on MDA-N; 1.61 µM (inactive) in the assay on HOP-62; 0.425 µM (active) in the assay with KM12; 0.472 µM (active) in the assay with SF-539; 3.06 µM (inactive) in the assay with MDA-MB-231. The GI50 in the assay on OVCAR-4 is 33.3 µM (inactive); in the assay with DU-145, 1.85 µM (inactive); with SW-620 it was 0.883 µM (active); in the assay with K562 it was 0.505 µM (active); in the assay with SR, 0.394 µM (active); in the assay with NCI-H23, 1.63 µM (inactive). Also, the GI50 in the assay on A498 is 6.92 µM (inactive); in the assay with HL-60, 4.12 µM (inactive); with MOLT-4, 3.33 µM (inactive); in the assay with SK-MEL-28 it was 9.75 µM (inactive); in the assay on OVCAR-3 it was 0.891 µM (active); in the assay on NCI-H460 it was 0.65 µM (active). Further, the values for the GI50 with M14 and with T47D were 2.2 µM (inactive) and 15.3 µM (inactive), respectively.
For the compound `O=C1CCCCCC1CC(Sc1ccccc1)Sc1ccccc1` (stereo not given), the GI50 in the assay with TK-10 was > 100 µM (inactive); in the assay on MDA-N, > 100 µM (inactive); in the assay on HOP-62 it was > 100 µM (inactive); in the assay with KM12, 60.8 µM (inactive); in the assay with SF-539, > 100 µM (inactive); in the assay with MDA-MB-231, > 100 µM (inactive). Moreover, the GI50 is 96.4 µM (inactive) with OVCAR-4; > 100 µM (inactive) in the assay with DU-145; 98.2 µM (inactive) in the assay with SW-620; 46.7 µM (inactive) with K562; 32.8 µM (inactive) in the assay on SR; 75.3 µM (inactive) in the assay with NCI-H23. For the same compound, the GI50 was > 100 µM (inactive) in the assay with A498; 21 µM (inactive) in the assay on HL-60; 8.69 µM (inactive) in the assay with MOLT-4; > 100 µM (inactive) in the assay with SK-MEL-28; 46.9 µM (inactive) with OVCAR-3; 64.7 µM (inactive) in the assay on NCI-H460. Moreover, the GI50 with M14 was > 100 µM (inactive); in the assay with T47D it was 14.4 µM (inactive).
Regarding `CC[n+]1c(/C=C/c2ccc(N(CCCl)CCCl)cc2)ccc2cc(NC(=O)/C=C/c3ccccc3)ccc21`, the GI50 was 2.95 µM (inactive) in the assay on TK-10; 0.6 µM (active) with MDA-N; 0.318 µM (active) in the assay on HOP-62; 0.423 µM (active) in the assay with KM12; 0.308 µM (active) in the assay on SF-539; 0.32 µM (active) in the assay with MDA-MB-231. For the same compound, the GI50 was 0.254 µM (active) in the assay on OVCAR-4; 0.288 µM (active) with DU-145; 0.208 µM (active) with SW-620; 0.134 µM (active) in the assay on K562; 0.189 µM (active) in the assay with SR; 0.482 µM (active) in the assay with NCI-H23. Also, the GI50 in the assay with A498 was 10.3 µM (inactive); in the assay on HL-60, 0.115 µM (active); in the assay with MOLT-4 it was 0.286 µM (active); with SK-MEL-28, 0.762 µM (active); in the assay with OVCAR-3, 1.75 µM (inactive); with NCI-H460, 0.245 µM (active). Besides, the GI50 with M14 is 0.436 µM (active); in the assay on T47D, 0.249 µM (active).
As to `CC1(C)OCC2OC(n3cnc4c(N)nc(Cl)nc43)C(OS(C)(=O)=O)C2O1` (stereo not given), the GI50 in the assay with TK-10, in the assay with MDA-N, in the assay with HOP-62, in the assay on KM12, with SF-539 and in the assay with MDA-MB-231 was > 100 µM (inactive) in each case. Also, the GI50 in the assay with OVCAR-4, with DU-145, in the assay with SW-620, in the assay with K562, with SR and in the assay with NCI-H23 was > 100 µM (inactive) each time. Further, the GI50 was > 100 µM (inactive) in the assay on A498; > 100 µM (inactive) with HL-60; 48.2 µM (inactive) with MOLT-4; > 100 µM (inactive) in the assay with SK-MEL-28; > 100 µM (inactive) in the assay with OVCAR-3; > 100 µM (inactive) with NCI-H460. For the same compound, the GI50 in the assay on M14 and in the assay with T47D was > 100 µM (inactive) in each case.
For the compound `COc1ccc(C2SC(=N)Nc3c2c(C)nn3C(=O)c2ccccc2O)cc1OC` (stereo not given), the GI50 with TK-10 was > 10 µM (inactive); in the assay on MDA-N, 6.08 µM (inactive); in the assay on HOP-62, 6.92 µM (inactive); in the assay with KM12 it was 6.55 µM (inactive); with SF-539, 2.84 µM (inactive); in the assay with MDA-MB-231, 7.5 µM (inactive). For the same compound, the GI50 was 7.93 µM (inactive) in the assay on OVCAR-4; 4.3 µM (inactive) with DU-145; > 10 µM (inactive) in the assay on SW-620; 3.53 µM (inactive) in the assay with K562; 4.75 µM (inactive) in the assay on SR; 3.52 µM (inactive) in the assay with NCI-H23. In addition, the GI50 is 5.93 µM (inactive) in the assay with A498; 2.16 µM (inactive) in the assay on HL-60; 4.06 µM (inactive) with MOLT-4; 9.51 µM (inactive) in the assay on SK-MEL-28; > 10 µM (inactive) with OVCAR-3; 4.68 µM (inactive) in the assay with NCI-H460. The GI50 with M14 was 7.11 µM (inactive); in the assay on T47D it was 3.18 µM (inactive).
With `O=C(O)[C@H](c1ccccc1)[C@@H](C(=O)O)c1ccccc1`, the GI50 in the assay on TK-10, in the assay on MDA-N, in the assay with HOP-62, with KM12, in the assay with SF-539 and in the assay with MDA-MB-231 was > 100 µM (inactive) in each case. The GI50 in the assay with OVCAR-4, with DU-145, with SW-620, in the assay on K562, in the assay on SR and in the assay with NCI-H23 was > 100 µM (inactive) in each case. For the same compound, the GI50 in the assay on A498 is > 100 µM (inactive); in the assay with HL-60, 0.228 µM (active); with MOLT-4 it was > 100 µM (inactive); in the assay with SK-MEL-28, > 100 µM (inactive); in the assay with OVCAR-3, > 100 µM (inactive); in the assay with NCI-H460 it was > 100 µM (inactive). Moreover, the GI50 with M14 and with T47D was > 100 µM (inactive) throughout.
Regarding `O=C(CC(O)(C(F)(F)Cl)C(F)(F)Cl)CC(O)(C(F)(F)Cl)C(F)(F)Cl`, the GI50 in the assay with TK-10 was 1.81 µM (inactive); in the assay on MDA-N, 3.49 µM (inactive); in the assay with HOP-62, 1.98 µM (inactive); in the assay on KM12, 3.04 µM (inactive); in the assay with SF-539, 2.95 µM (inactive); in the assay on MDA-MB-231, 2.05 µM (inactive). The GI50 in the assay on OVCAR-4 is 1.33 µM (inactive); in the assay with DU-145, 0.515 µM (active); in the assay with SW-620 it was 3.36 µM (inactive); in the assay on K562, 0.843 µM (active); in the assay with SR, 2.65 µM (inactive); in the assay with NCI-H23 it was 0.975 µM (active). The GI50 is 2.21 µM (inactive) with A498; 1.78 µM (inactive) with HL-60; 2.14 µM (inactive) with MOLT-4; 1.95 µM (inactive) in the assay with SK-MEL-28; 1.12 µM (inactive) in the assay on OVCAR-3; 1.24 µM (inactive) in the assay with NCI-H460. In addition, the GI50 is 4.03 µM (inactive) in the assay on M14 and 0.647 µM (active) with T47D.
